Experimental data: ChEMBL document CHEMBL5316334, “Structure-Based Design of Novel Alkynyl Thio-Benzoxazepinone Receptor-Interacting Protein Kinase-1 Inhibitors: Extending the Chemical Space from the Allosteric to ATP Binding Pockets” (J Med Chem, 2023)
The source made the active and inactive calls. The rule behind the calls is not given here.

What was measured:
HT-29 [1] = assay: Cytotoxicity against human HT-29 cells assessed as reduction in cell viability at 100 uM measured for 16 to 24 hrs by Cell-titer-glo assay; format: functional, cell-based; details: time 16-24 hrs
HT-29 [2] = assay: Cytotoxicity against human HT-29 cells assessed as reduction in cell viability measured for 16 to 24 hrs by Cell-titer-glo assay; format: functional; details: time 16-24 hrs
HT-29 [3] = assay: Anti-necroptosis activity against human HT-29 cells assessed as inhibition of TSZ-induced necroptosis preincubated for 30 mins followed by compound addition and measured for 16 hrs by Cell-titer-glo assay; format: functional, cell-based
L929 = assay: Anti-necroptosis activity against TNFalpha-induced mouse L929 cells assessed as cell viability preincubated for 1 hr followed by TNFalpha stimulation and measured after 18 hrs by Cell-titer-glo assay; format: functional, cell-based
[4] = biological target: T1, Receptor-interacting serine/threonine-protein kinase 1 (Homo sapiens, UniProt Q13546); assay: Binding affinity to recombinant RIPK1 (unknown origin) assessed as dissociation constant by kinomescan assay
T1 sequence (Q13546 whole entry): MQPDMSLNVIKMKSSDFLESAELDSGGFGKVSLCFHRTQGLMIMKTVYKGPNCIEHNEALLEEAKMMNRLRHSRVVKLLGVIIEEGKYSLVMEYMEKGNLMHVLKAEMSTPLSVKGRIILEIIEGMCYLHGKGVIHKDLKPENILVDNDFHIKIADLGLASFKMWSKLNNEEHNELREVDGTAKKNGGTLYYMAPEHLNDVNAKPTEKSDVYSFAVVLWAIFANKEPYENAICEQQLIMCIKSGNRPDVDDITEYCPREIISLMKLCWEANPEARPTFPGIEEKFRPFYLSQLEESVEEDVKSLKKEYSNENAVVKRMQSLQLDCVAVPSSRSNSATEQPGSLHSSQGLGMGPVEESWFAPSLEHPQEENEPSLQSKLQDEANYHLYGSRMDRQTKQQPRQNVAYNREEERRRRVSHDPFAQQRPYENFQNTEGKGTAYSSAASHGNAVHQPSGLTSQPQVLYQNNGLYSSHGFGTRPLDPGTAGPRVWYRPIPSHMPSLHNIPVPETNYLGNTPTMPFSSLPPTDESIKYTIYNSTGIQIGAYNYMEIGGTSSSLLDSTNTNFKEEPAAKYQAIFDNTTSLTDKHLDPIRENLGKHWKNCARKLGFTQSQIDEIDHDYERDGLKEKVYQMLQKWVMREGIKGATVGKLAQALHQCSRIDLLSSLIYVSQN

[5] = Half life in mouse; format: ADME, organism-based; details: in vivo
HT-29 [6] = assay: Anti-necroptosis activity against human HT-29 cells assessed as inhibition of TSZ-induced necroptosis pretreated with compound followed by TSZ induction and measured for 12 hrs by Cell-titer-glo assay; format: functional, cell-based; details: dose 0.63-100 nM

SMILES	Activity (HT-29 [1])	CC50 (HT-29 [2]) [nM]	EC50 (HT-29 [3]) [nM]	EC50 (L929) [nM]	Kd [4] [nM]	half-life [5] [min]	Activity (HT-29 [6])
COC(=O)c1ccccc1C#Cc1ccc2c(c1)N(C)C(=S)[C@@H](NC(=O)c1n[nH]c(Cc3ccccc3)n1)CO2	inactive	> 100000	32.9	–	–	–	–
CN1C(=S)[C@@H](NC(=O)c2n[nH]c(Cc3ccccc3)n2)COc2ccc(C#Cc3ccccc3C(F)(F)F)cc21	inactive	> 100000	41.3	–	–	–	–
Cc1cccc(C#Cc2ccc3c(c2)N(C)C(=S)[C@@H](NC(=O)c2n[nH]c(Cc4ccccc4)n2)CO3)c1	inactive	> 100000	27.6	–	–	–	–
CN1C(=S)[C@@H](NC(=O)c2n[nH]c(Cc3ccccc3)n2)COc2ccc(C#Cc3cccc(F)c3)cc21	inactive	> 100000	22.6	–	–	–	–
CN1C(=S)[C@@H](NC(=O)c2n[nH]c(Cc3ccccc3)n2)COc2ccc(C#Cc3ccccc3)cc21	inactive	> 100000	12.7	–	–	–	–
CN1C(=O)[C@@H](NC(=O)c2nnc(Cc3ccccc3)[nH]2)COc2ccc(C#CC(C)(C)O)cc21 [OCADUSERTIB]	–	–	–	< 1	–	–	–
CN1C(=S)[C@@H](NC(=O)c2n[nH]c(Cc3ccccc3)n2)COc2ccc(C#Cc3ccccc3[N+](=O)[O-])cc21	inactive	> 100000	15.1	–	–	–	–
CN1C(=S)[C@@H](NC(=O)c2n[nH]c(Cc3ccccc3)n2)COc2ccc(C#Cc3cccc(C(F)(F)F)c3)cc21	inactive	> 100000	47.8	–	–	–	–
COC(=O)c1ccc(C#Cc2ccc3c(c2)N(C)C(=S)[C@@H](NC(=O)c2n[nH]c(Cc4ccccc4)n2)CO3)cc1	inactive	> 100000	5.8	–	83	–	–
CN1C(=S)[C@@H](NC(=O)c2n[nH]c(Cc3ccccc3)n2)COc2ccc(C#Cc3ccc([N+](=O)[O-])cc3)cc21	inactive	> 100000	6.8	–	150	–	–
COc1ccccc1C#Cc1ccc2c(c1)N(C)C(=S)[C@@H](NC(=O)c1n[nH]c(Cc3ccccc3)n1)CO2	inactive	> 100000	10.7	–	–	–	–
CN1C(=S)[C@@H](NC(=O)c2n[nH]c(Cc3ccccc3)n2)COc2ccc(C#Cc3ccc(OC(F)(F)F)cc3)cc21	inactive	> 100000	10.4	–	–	–	–
CN1C(=S)[C@@H](NC(=O)c2n[nH]c(Cc3ccccc3)n2)COc2ccc(C#Cc3ccc(F)cc3)cc21	inactive	> 100000	22.5	–	–	–	–
CN1C(=O)C(Cc2c[nH]c3ccccc23)NC1=S (stereo unspecified) [NECROSTATIN]	–	–	–	–	–	< 5	–
CN1C(=S)[C@@H](NC(=O)c2n[nH]c(Cc3ccccc3)n2)COc2ccccc21	–	> 100000	–	–	–	–	–
CN1C(=S)[C@@H](NC(=O)c2n[nH]c(Cc3ccccc3)n2)COc2ccc(C#Cc3cccc(Cl)c3)cc21	inactive	> 100000	23.9	–	–	–	–
CN1C(=S)[C@@H](NC(=O)c2n[nH]c(Cc3ccccc3)n2)COc2ccc(C#CC3CC3)cc21	–	> 100000	8.7	–	40	–	–

SMILES	Activity (HT-29 [1])	CC50 (HT-29 [2]) [nM]	EC50 (HT-29 [3]) [nM]	EC50 (L929) [nM]	Kd [4] [nM]	half-life [5] [min]	Activity (HT-29 [6])
CN1C(=S)[C@@H](NC(=O)c2n[nH]c(Cc3ccccc3)n2)COc2ccc(C#Cc3ccccc3OC(F)(F)F)cc21	inactive	> 100000	36.2	–	–	–	–
CN1C(=S)[C@@H](NC(=O)c2n[nH]c(Cc3ccccc3)n2)COc2ccc(C#Cc3ccccc3Cl)cc21	inactive	> 100000	14	–	–	–	–
CN1C(=O)[C@@H](NC(=O)c2n[nH]c(Cc3ccccc3)n2)COc2ccc(N3CC4(CCOCC4)C3)cc21	–	–	–	< 1	–	–	–
CN1C(=S)[C@@H](NC(=O)c2n[nH]c(Cc3ccccc3)n2)COc2ccc(C#Cc3ccccc3C#N)cc21	inactive	> 100000	7.7	–	78	–	–
COC(=O)c1cccc(C#Cc2ccc3c(c2)N(C)C(=S)[C@@H](NC(=O)c2n[nH]c(Cc4ccccc4)n2)CO3)c1	inactive	> 100000	10.8	–	160	–	–
CN1C(=S)[C@@H](NC(=O)c2n[nH]c(Cc3ccccc3)n2)COc2ccc(C#Cc3cccc([N+](=O)[O-])c3)cc21	inactive	> 100000	9.2	–	230	–	–
Cc1ccc(C#Cc2ccc3c(c2)N(C)C(=S)[C@@H](NC(=O)c2n[nH]c(Cc4ccccc4)n2)CO3)cc1	inactive	> 100000	17.4	–	–	–	Dose-Dependent Effect
CN1C(=S)[C@@H](NC(=O)c2n[nH]c(Cc3ccccc3)n2)COc2ccc(C#Cc3ccc(C#N)cc3)cc21	inactive	> 100000	6.3	–	92	–	–
COc1ccc(C#Cc2ccc3c(c2)N(C)C(=S)[C@@H](NC(=O)c2n[nH]c(Cc4ccccc4)n2)CO3)cc1	inactive	> 100000	299	–	–	–	–
CN1C(=S)[C@@H](NC(=O)c2n[nH]c(Cc3ccccc3)n2)COc2ccc(C#CCc3ccccc3)cc21	inactive	> 100000	14.3	–	–	–	–
CN1C(=S)[C@@H](NC(=O)c2n[nH]c(Cc3ccccc3)n2)COc2ccc(C#Cc3ccccc3F)cc21	inactive	> 100000	32.3	–	–	–	–
COc1cccc(C#Cc2ccc3c(c2)N(C)C(=S)[C@@H](NC(=O)c2n[nH]c(Cc4ccccc4)n2)CO3)c1	inactive	> 100000	11.1	–	–	–	–
CN1C(=S)[C@@H](NC(=O)c2n[nH]c(Cc3ccccc3)n2)COc2ccc(C#Cc3ccc(C(F)(F)F)cc3)cc21	inactive	> 100000	25.5	–	–	–	–
CN1C(=S)[C@@H](NC(=O)c2n[nH]c(Cc3ccccc3)n2)COc2ccc(C#Cc3ccc(Cl)cc3)cc21	inactive	> 100000	31.3	–	–	–	–
Cc1ccccc1C#Cc1ccc2c(c1)N(C)C(=S)[C@@H](NC(=O)c1n[nH]c(Cc3ccccc3)n1)CO2	inactive	> 100000	23.3	–	–	–	–
CN1C(=S)[C@@H](NC(=O)c2n[nH]c(Cc3ccccc3)n2)COc2ccc(C#C[Si](C)(C)C)cc21	inactive	> 100000	20.5	–	–	–	–
CN1C(=S)[C@@H](NC(=O)c2n[nH]c(Cc3ccccc3)n2)COc2ccc(C#Cc3cccc(OC(F)(F)F)c3)cc21	inactive	> 100000	27	–	–	–	–
